System: “preeclamptic” rat model
Test: "preeclamptic" rat model (pregnant rats, saline drinking water plus weekly DOCA)
Assay type: in vivo, Sprague-Dawley rats
Description: Metolazone is a diuretic with unique properties. At low doses, it reduces blood pressure in our “preeclamptic” rat model. Female Sprague-Dawley rats were mated and the “preeclamptic” syndrome was induced by replacing their drinking water with saline and injecting them with DOCA at weekly intervals. When hypertension had occurred (3-5 days of gestation), the animals were randomly divided into two groups: 1) Group I (PE+M), n=7, was given metolazone in a daily dose of 0.04 mg/kg body weight daily for 12-14 day by gavage and 2) Group II (PE) n=5, was simply given the vehicle (saline).

[1] = rat model of preeclampsia, metolazone treatment

## Cc1ccccc1N1C(=O)c2cc(S(N)(=O)=O)c(Cl)cc2NC1C (stereo not shown) [Metolazone, metolazone]
PE+M rats, 0.04 mg/kg daily by gavage, 16.2+/−6 mM/24 h prior to M administration, p>0.05
  Urinary sodium excretion after M: 15.3 mM/24 h
PE+M rats, seen in four of the five vehicle PE animals
  Growth retardation (animals affected): none
PE+M versus PE rats
  Weight gain versus vehicle group: similar
Metolazone 0.04 mg/kg body weight daily for 12-14 day by gavage, before treatment 119+/−3 mm Hg, vehicle PE rats 121+/−7 mm Hg, p<0.01
  Blood pressure in the PE+M animals after treatment (mean): 100+/−16 mm/Hg
[1]
  Effect on intrauterine growth restriction: beneficial effect
  Influence on pup number and development: positive influence
Rat model of preeclampsia, non-diuretic dose
  Volume contraction: without causing volume contraction

Reference: patent US20080146592A1, “Method of Treating Preeclampsia Employing Metolazone” (priority 2003, published 2008)
